We go through five compounds from patent US20170037008A1, “PHENYL BENZYL ETHER DERIVATIVE AND PREPARATION METHOD AND APPLICATION THEREOF” (BEIJING ZHIBO BIO-MEDICAL TECHNOLOGY CO., LTD, priority 2013, published 2017).

A short description of data set [1]: Biological distribution in bodies of normal mice. The class given is in vivo, mice (ICR). The note with it: caudal vein injection. From the text:
Through in-vivo distribution experiments, pharmacokinetic features, especially initial bran intake and brain removal situations of ^18F or ^125I labeled compounds in the bodies of mice are studied. […] Data are expressed in radioactive percentage dosage per organ (% ID/organ) and radioactive percentage dosage per gram of organ (% ID/g).

The nature of a further data set: logD of labeled ligands. In kind it is physicochemical.

In the case of `COc1ccc(OCc2ccc(OCC[18F])cc2)cc1` [[^18F]44a], the Blood was 3.90 ± 0.25 % ID/g in data set [1] (2 min), 3.86 ± 0.24 % ID/g in data set [1] (10 min), 4.28 ± 0.23 % ID/g in data set [1] (30 min) and 3.86 ± 0.39 % ID/g in data set [1] (60 min). For the same compound, the Bone in data set [1] (2 min) was 1.50 ± 0.44 % ID/organ; in data set [1] (10 min) it was 1.04 ± 0.25 % ID/organ; in data set [1] (30 min), 1.43 ± 0.44 % ID/organ; in data set [1] (60 min), 4.05 ± 0.62 % ID/organ. The Brain amounted to 7.54 ± 0.39 % ID/g in data set [1] (2 min), 3.32 ± 0.38 % ID/g in data set [1] (10 min), 2.77 ± 0.22 % ID/g in data set [1] (30 min) and 2.33 ± 0.30 % ID/g in data set [1] (60 min). In “logD of labeled ligands”, the logD entry is “[^18F]44a (logD = 3.05 ± 0.08)”.
With `FCCOc1ccc(OCc2ccc([125I])cc2)cc1` [[^125I]31a], the Blood in data set [1] (2 min) worked out at 5.03 ± 0.20 % ID/g; in data set [1] (10 min), 3.03 ± 0.48 % ID/g; in data set [1] (30 min), 2.17 ± 0.31 % ID/g. Also, the Brain in data set [1] (2 min) came out at 7.04 ± 0.89 % ID/g; in data set [1] (10 min), 2.73 ± 0.25 % ID/g; in data set [1] (30 min), 1.05 ± 0.22 % ID/g; in data set [1] (60 min), 0.55 ± 0.11 % ID/g. For the same compound, the Thyroid in data set [1] (2 min) is 0.12 ± 0.02 % ID/organ; in data set [1] (10 min), 0.09 ± 0.02 % ID/organ; in data set [1] (30 min), 0.12 ± 0.01 % ID/organ; in data set [1] (60 min) it was 0.16 ± 0.03 % ID/organ. In the data set “logD of labeled ligands”, the logD result was “[^125I]31a (logD = 3.96 ± 0.22)”.
As for `COc1ccc(COc2ccc([125I])cc2)cc1` [[^125I]24], the Blood in data set [1] (2 min) is reported as 5.13 ± 0.62 % ID/g; in data set [1] (10 min), 4.26 ± 0.38 % ID/g; in data set [1] (30 min), 3.31 ± 0.79 % ID/g; in data set [1] (60 min) it was 2.60 ± 1.33 % ID/g. The Brain in data set [1] (2 min) turned out to be 4.29 ± 1.06 % ID/g; in data set [1] (10 min), 2.11 ± 0.38 % ID/g; in data set [1] (30 min) it was 0.73 ± 0.17 % ID/g; in data set [1] (60 min), 0.32 ± 0.09 % ID/g. Further, the Thyroid in data set [1] (10 min) was found to be 0.07 ± 0.03 % ID/organ; in data set [1] (30 min), 0.17 ± 0.03 % ID/organ; in data set [1] (60 min) it was 0.19 ± 0.05 % ID/organ. Moreover, in “logD of labeled ligands”, the logD entry was “[^125I]24 (logD = 4.16 ± 0.29)”.
On to `COc1ccc(COc2ccc(OCC[18F])cc2)cc1` [[^18F] 53a], for which the Blood was 4.26 ± 0.41 % ID/g in data set [1] (2 min), 4.61 ± 0.95 % ID/g in data set [1] (10 min), 3.76 ± 0.19 % ID/g in data set [1] (30 min) and 3.05 ± 1.09 % ID/g in data set [1] (60 min). Besides, the Bone in data set [1] (2 min) amounted to 2.37 ± 0.69 % ID/organ; in data set [1] (10 min), 2.76 ± 0.47 % ID/organ; in data set [1] (30 min), 4.02 ± 0.78 % ID/organ; in data set [1] (60 min), 5.89 ± 0.49 % ID/organ. The Brain in data set [1] (2 min) is given as 9.95 ± 2.36 % ID/g; in data set [1] (10 min), 2.77 ± 0.19 % ID/g; in data set [1] (30 min) it was 1.44 ± 0.18 % ID/g; in data set [1] (60 min) it was 1.30 ± 0.16 % ID/g. Further, the logD result in “logD of labeled ligands” is “[^18F] 53a (logD = 3.65 ± 0.04)”.
`CN(C)c1ccc(OCc2ccc([125I])cc2)cc1` [[^125I]22]: the Blood in data set [1] (2 min) came out at 4.01 ± 0.28 % ID/g; in data set [1] (10 min), 2.46 ± 0.30 % ID/g; in data set [1] (30 min), 2.53 ± 0.27 % ID/g; in data set [1] (60 min) it was 1.34 ± 0.26 % ID/g. Moreover, the Brain in data set [1] (2 min) came out at 4.91 ± 0.60 % ID/g; in data set [1] (10 min), 3.26 ± 0.24 % ID/g; in data set [1] (30 min), 1.34 ± 0.12 % ID/g; in data set [1] (60 min) it was 0.49 ± 0.07 % ID/g. In addition, the Thyroid in data set [1] (2 min) turned out to be 0.11 ± 0.03 % ID/organ; in data set [1] (10 min) it was 0.12 ± 0.03 % ID/organ; in data set [1] (30 min), 0.16 ± 0.04 % ID/organ; in data set [1] (60 min), 0.27 ± 0.04 % ID/organ. For the same compound, in “logD of labeled ligands”, the logD result was “[^125I]22 (logD = 2.89 ± 0.09)”.
